Assay results taken from patent US12152248B2, “Membrane-penetrating peptides to enhanced transfection and compositions and methods for using same” (LIFE TECHNOLOGIES CORPORATION, priority 2013, dated 2024).

What was measured:
Assay type in all cases: cell-based
HeLa cells [1] = test: GFP transfection with lipid alone, peptide alone or both (FIG. 8); conditions: 96-well, 48 hrs, Peptide 1 in the presence of LIPOFECTAMINE® 3000, 0.05-0.5 μl
From the text: FIG. 8 are bar graphs depicting relative transfection efficiency (upper graph, GFP+ as % of Single Cells Only) or relative expression level per cell (lower graph; Single cells Only Mean FL-1) of HeLa cells transfected with a GFP expression vector using the indicated doses (in μl) of LIPOFECTAMINE® 3000 alone (LF3K), LIPOFECTAMINE® 2000 (LF2K), a peptide according to an embodiment (Peptide 1) or LIPOFECTAMINE® 3000 in combination with a peptide according to an embodiment (LF3K+ Peptide 1);
HeLa cells were seeded onto 96-well plates and transfected for 48 hrs with […] of pcDNAEF1a/emGFP using either 0.05 μl, 0.1 μl, 0.2 μl, 0.3 μl, 0.4 μl, or 0.5 μl of LIPOFECTAMINE® 3000 Reagent alone (LF3K), LIPOFECTAMINE® 2000 (LF2K), Peptide 1 alone (Peptide 1), or LIPOFECTAMINE® 3000 in combination with Peptide 1 as described in Example 1 (LF3K+Peptide 1). Transfection efficiency and protein expression as measured by Fluorescence intensity (FL1-H) were determined. Results are depicted in FIG. 8.

[2] = tested on: HEK293, HeLa, COS-7, LNCaP, A549 and HepG2; test: Comparison of transfection reagents, GFP fluorescence images (FIG. 2); conditions: panel of six cell lines; pcDNAEF1a/emGFP; 48 hrs; Peptide 1 used with LIPOFECTAMINE® 3000
Description: Transfection complexes for transfecting DNA into cells in culture were prepared according to manufacturer protocol. LIPOFECTAMINE® 2000 and LIPIFECTAMINE® LTX were purchased from Life Technologies Corp. (Carlsbad, CA), FUGENE® HD was purchased from Promega Corp. (Fitchburg, WI), and X-TREMEGENE™ HP was purchased from Roche Diagnostics (Basel, Switzerland).
To prepare transfection complexes containing the non-naturally occurring peptides described above, Peptide 1 having the following sequence […] (SEQ ID NO. 89) was synthesized and provided as a dry powder. The dry powder was reconstituted in sterile ultrapure water to a final concentration of 4.35 mg/ml and allowed to fully dissolve. This stock peptide solution was set aside for use in the next step.
To prepare the lipid aggregate-DNA-peptide complexes, LIPOFECTAMINE® 3000 reagent (Life Technologies Corp., Carlsbad, CA) was obtained. […]
Following the incubation, the lipid-peptide-DNA complexes were added to cells that were seeded the previous day with fresh growth medium; for 96-well plates, 10 μl of the lipid-peptide-DNA was added to the cells, for 24-well plates, 50 μl of the lipid-peptide-DNA mixture was added to the cells, for 6-well plates, 250 μl of the lipid-peptide-DNA was added to the cells. The cells were incubated in the presence of the lipid-peptide-DNA for approximately 24-48 hrs, and analyzed. […]

HeLa cells [3] = test: Effect of transfection reagent dosage on transfection efficiency and GFP expression (FIG. 3); conditions: 96-well, 0.1-0.4 μl reagent, Peptide 1 with LIPOFECTAMINE® 3000 vs LIPOFECTAMINE® 2000 and LTX
From the text: (§1) FIG. 3A is a graph comparing the relative transfection efficiency for an expression vector encoding GFP transfected into cultured HeLa cells using increasing dosages of three different commercially available lipid aggregate formulations, LIPOFECTAMINE® 2000 (open circles), LIPOFECTAMINE® LTX (open squares), and LIPOFECTAMINE® 3000 in combination with a peptide according to an embodiment (open triangles);
as §1, with “3B” for “3A”, “intensity of GFP expression in HeLa cells transfected with” for “relative transfection efficiency for”, “GFP” for “GFP transfected into cultured HeLa cells”, “dosage” for “dosages”
HeLa cells were plated in 96-well plates and transfected with pcDNAEF1a/emGFP using 0.1 μl, 0.2 μl, 0.3 μl or 0.4 μl of LIPOFECTAMINE® 2000, LIPOFECTAMINE® LTX, or LIPOFECTAMINE® 3000 reagent in combination with Peptide 1 as described in Example 1. Transfection efficiency and relative protein expression as measured by […] was determine for each condition. […]

In the case of “SRRARRSPRESGKKRKRKRGGGSGGGSGGGSRRRRRRRRRRR [Peptide 1, 89; MPP DPV10/6 fused to Linker 1 and cationic CP1]”, the “transfection efficiency and protein expression (FIG. 8)” value (HeLa cells [1]) is reported as “significantly enhances transfection efficiency and protein expression”, the “transfection efficiency (GFP expression, FIG. 2)” value [2] is reported as “improved transfection efficiency substantially” and the “relative expression of GFP (FIG. 3B)” value (HeLa cells [3]) is reported as “improves relative expression of GFP in the cells over the entire range of transfection reagent dosages tested”. The “relative transfection efficiency (FIG. 3A)” value (HeLa cells [3]) was “improves transfection efficiency of the cells over the entire range of transfection reagent dosages tested”.
